Assays:
[1] = target: T1, human recombinant PTP1B (Homo sapiens, UniProt P18031); test: PTP1B inhibitory assay (pNPP substrate); assay type: biochemical; conditions: mean of three determinations ± SD, Nd = not detected, pH 6, 37 °C
T1 construct: purchased Sigma-Aldrich
T1 sequence (P18031 1-435): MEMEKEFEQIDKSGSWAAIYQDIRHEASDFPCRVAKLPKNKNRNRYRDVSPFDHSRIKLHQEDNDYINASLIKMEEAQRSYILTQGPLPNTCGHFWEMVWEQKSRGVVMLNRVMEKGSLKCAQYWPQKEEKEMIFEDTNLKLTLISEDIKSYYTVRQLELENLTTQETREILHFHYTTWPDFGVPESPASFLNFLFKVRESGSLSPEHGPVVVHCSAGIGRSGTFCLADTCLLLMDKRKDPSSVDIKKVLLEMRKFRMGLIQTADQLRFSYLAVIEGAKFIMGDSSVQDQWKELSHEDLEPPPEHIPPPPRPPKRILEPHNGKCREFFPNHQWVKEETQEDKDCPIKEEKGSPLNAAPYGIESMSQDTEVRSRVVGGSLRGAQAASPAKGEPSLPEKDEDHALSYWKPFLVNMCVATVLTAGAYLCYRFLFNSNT
Experimental: The inhibitory activity of the isolated compounds against human recombinant PTP1B was evaluated using p-nitrophenyl phosphate (pNPP) as a substrate. Firstly, 2 mM pNPP and PTP1B were mixed with 50 mM citrate buffer of pH 6 and 0.1 mM NaCl, 1 mM EDTA, and 1 mM DTT with or without sample keeping the final volume of the solution at 110 μL and placing them in a 96 wells plate. […] The plate was first pre-incubated for 10 min at 37 °C, and then 50 μL of pNPP in buffer was added. The plate was again incubated for 30 min at 37 °C. After that, 10 μL of 10M NaOH was added dropwise to stop the reaction. […] The inhibition percentage was calculated with the formula [( Ac−As/Ac )] × 100%, where Ac is the absorbance of control while As is the absorbance of the sample. […] Data were presented as mean ± S.D [35].

[2] = DPPH radical scavenging assay; conditions: mean of three determinations ± SD; Nd = not detected; 30 min at 37 °C, 517 nm
Experimental: The DPPH activity of the isolated compounds and extracts were evaluated as described previously. Twenty μ L of samples having different concentrations of the extract (100, 500, 250, and 125 µg/mL) and isolated compounds (100, 75, 50, and 25 μ M) keeping the total volume of solution at 180 μL (0.1 mM) solution, was added in 96 well plates and incubated for 30 min at 37 °C. The observation was measured at 517nm. Each observation was done in triplicate. Ascorbic acid and Trolox were used as positive controls, while methanol was used as a negative control. Inhibition % was calculated. Data were presented as the mean ± S.D.

[3] = ABTS radical scavenging assay; conditions: mean of three determinations ± SD; Nd = not detected; 732 nm
Experimental: ABTS inhibition of the isolated compounds and extracts were evaluated as described previously. Stock solution was prepared by mixing an equal volume of 7.4 mM of ABTS and 2.6 mM of potassium persulfate and kept for 24 hours before diluting with methanol. Later the solution was diluted with methanol till the absorbance at 732 nm came within the range of 0.8–1.2. To 50 µL of sample solutions of different concentration (250, 125, 100, 50 μM ) 950 μL of ABTS* was added. Absorbance was measured at 732 nm by a spectrophotometer. Ascorbic acid and Trolox, and methanol were used as a positive and negative controls, respectively. All observations were done in triplicate. Percentage inhibition was calculated from the observations. Data were presented as mean ± S.D.

For `CC1OC(OC2C(OC3CCC4(C)C(CCC5(C)C4CC=C4C6CC(C)(C)CCC6(C(=O)O)CCC45C)C3(C)CO)OCC(O)C2O)C(O)C(O)C1O` [Compound 12, 3-O-[α-L-rhamnopyranosyl-(1→2)-α-L-arabinopyranpsyl]hederagenin], the IC50 [1] was 91.3 ± 2.5 µM.
`O=c1c(OC2OC(CO)C(O)C(O)C2O)c(-c2ccc(O)cc2)oc2cc(OC3OC(CO)C(O)C(O)C3O)cc(O)c12` (stereo not shown) [Compound 9, kaempferol-3,7-diglucoside] showed an IC50 [2] of 198 ± 2.7 µM and an IC50 [3] of 247 ± 2.7 µM.
For `C[C@@H]1O[C@@H](OC[C@H]2O[C@@H](Oc3c(-c4ccc(O)c(O)c4)oc4cc(O)cc(O)c4c3=O)[C@H](O)[C@@H](O)[C@@H]2O)[C@H](O)[C@H](O)[C@H]1O` [Compound 11, rutin], the IC50 [2] was 39.6 ± 0.5 µM and the IC50 [3] was 129 ± 0.5 µM.
`Cc1c(C)c2c(c(C)c1O)CCC(C)(C(=O)O)O2` (stereo not shown) [Trolox, reference compound] gave an IC50 [2] of 59.4 ± 0.9 µM and an IC50 [3] of 96.2 ± 1.5 µM.
`COc1ccc2c(c1O)-c1c(O)c(OC)cc3c1[C@H](C2)[N+](C)(C)CC3` [Compound 5, magnoflorine] showed an IC50 [2] of 71 ± 0.5 µM and an IC50 [3] of 139.2 ± 0.5 µM.
`O=c1c(OC2OC(CO)C(O)C(O)C2OC2OC(CO)C(O)C(O)C2OC2OC(CO)C(O)C(O)C2O)c(-c2ccc(O)c(O)c2)oc2cc(O)cc(O)c12` (stereo not shown) [Compound 8, quercetin sphorotrioside] gave an IC50 [2] of 35.5 ± 0.5 µM and an IC50 [3] of 98.8 ± 0.5 µM.
With `O=C1O[C@H]([C@@H](O)CO)C(O)=C1O` [Ascorbic acid, reference compound] the IC50 [2] was 51.7 ± 0.1 µM and the IC50 [3] was 82.9 ± 2 µM.

Source: publication PMC7248923, “A New Oleanane Type Saponin from the Aerial Parts of Nigella sativa with Anti-Oxidant and Anti-Diabetic Potential” (Molecules, 2020)
